Like-named read-outs stand apart in the source and are kept apart here. Marks after values point to notes of the source that are not given here.
Key:
[1] = chlorobenzene, 37° C., same conditions; cited from earlier work
[2] = Decomposition / Cope elimination half-life (HPLC); assay type: physicochemical
Source text: The lack of radical-trapping activity of allicin and petivericin obvious from FIGS. 1A and 1B could be due to their partitioning to the aqueous phase, where Cope elimination to produce the reactive sulfenic acids 3 and 4, respectively, is slowed dramatically by H-bonding. (V. Vaidya, K. U. Ingold, D. A. Pratt, Angew. Chem. Int. Ed. 2009, 48, 157-160; P. T. Lynett, K. Butts, V. Vaidya, G. E. Garrett, D. A. Pratt, Org. Biomol. Chem. 2011, 9, 3320-3330; E. Block, Angew. Chem. Int. Ed. Engl. 1992, 31, 1135-1178; and F. Freeman, Y. Kodera, J. Agric. Food Chem. 1995, 43, 2332-2338] However, the half-life for decomposition of allicin in the liposome solutions (determined by HPLC) was extended by only 50% compared to that determined in non-H-bonding organic solvents (˜60 minutes). (V. Vaidya, K. U. Ingold, D. A. Pratt, Angew. Chem. Int. Ed. 2009, 48, 157-160; P. T. Lynett, K. Butts, V. Vaidya, G. E. Garrett, D. A. Pratt, Org. Biomol. Chem. 2011, 9, 3320-3330). This is consistent with a previous report which provides a partition coefficient for allicin in phosphatidylcholine:water of Kp=11 (T. Miron, A. Rabinkov, D. Mirelman, M. Wilchek, L. Weiner, Biochim. Biophys. Acta 2000, 1463, 20-30). The Cope elimination of 3 from petivericin was roughly identical—with a half-life of ˜90 minutes (see Supp. Info.). […]

[3] = Oxidation of egg phosphatidylcholine liposomes containing the fluorescent probe H2B-PMHC; settings: for effect on oxidation of liposome-embedded H2B-PMHC with one equivalent of NAC: MeOAMVN- or ABAP-mediated, 4.5-15 μM, equivalent amount of NAC, PBS pH 7.4; for inhibition of oxidation of liposome-embedded H2B-PMHC: MeOAMVN-mediated (0.2 mM), compound 1.5-15 μM; for inhibition of oxidation of liposome-embedded H2B-PMHC / radical trapping at the lipid/water interface: no thiol; for efficacy relative to α-TOH in a lipid bilayer: inferred from no effect at 15 μM (100-fold over H2BPMHC); for radical trapping at the lipid/water interface: water-soluble ABAP-mediated oxidation; for effect of increasing equivalents of NAC on inhibited period: 4.5 μM compound, MeOAMVN and ABAP, NAC 1-5 equiv. (9) or 0-4 equiv. (5)
Protocol: FIG. 1 depicts representative fluorescence intensity-time profiles from MeOAMVN-mediated (0.2 mM) oxidations of egg phosphatidylcholine liposomes (1 mM) containing 0.15 μM H2BPMHC and increasing concentrations (1.5, 3.0, 4.5, 6.0, 7.5 and 15 μM) of 1 (A), 2 (B), 5 (C) and 8 (D—15 μM profile not shown); fluorescence (λex=485 nm; λem=520 nm) was recorded every 50 s;
FIG. 2 depicts representative fluorescence intensity-time profiles from MeOAMVN-mediated (0.2 mM, left) and ABAP-mediated (2.7 mM, right) oxidations of egg phosphatidylcholine liposomes (1 mM) containing 0.15 μM H2B-PMHC and either 2 (A, B) or 9 (C, D) at 4.5 μM (black), 7.5 μM (grey) or 15 μM (light grey) in PBS buffer of pH 7.4 containing an equivalent amount of NAC; panels E and F show the effect of NAC only (4.5, 7.5 and 15 μM); fluorescence (λex=485 nm; λem=520 nm) was recorded every 50 s; and
FIG. 3 depicts representative fluorescence-time profiles from MeOAMVN-mediated (0.2 mM, left) and ABAP-mediated (2.7 mM, right) oxidations of egg phosphatidylcholine liposomes (1 mM) containing 0.15 μM H2B-PMHC and either 4.5 μM 9 (A, B) with 1, 2, 3 or 5 equiv. of NAC or 4.5 μM 5 (C, D) with 0, 1, 2 or 4 equiv. of NAC; fluorescence (λex=485 nm; λem=520 nm) was recorded every 50 s.
To shed some light on this issue, the radical-trapping abilities of 1, 2 and 5 have been studied in unilamellar phosphatidylcholine liposomes—convenient models for the lipid bilayers that make up biological membranes. The relative reactivities of the compounds were determined using H2B-PMHC (6), an analog of α-tocopherol (7 or α-TOH, the most biologically-active form of Vitamin E and Nature's premier lipophilic radical-trapping antioxidant) (G. W. Burton, K. U. Ingold, Acc. Chem. Res. 1986, 19, 194-201), which undergoes a significant fluorescence enhancement upon oxidation by two equivalents of peroxyl radical. In the presence of a good radical-trapping antioxidant, the fluorescence onset is suppressed since the radicals are trapped by the compound under investigation in lieu of reacting with H2B-PMHC.
Initial experiments focused on the ability of either 1 or 2 to inhibit the oxidation of liposome-embedded H2B-PMHC by either lipophilic or hydrophilic peroxyl radicals derived from the azo initiators MeOAMVN (N. Noguchi, H. Yamashita, N. Gotoh, Y. Yamamoto, R. Numano, E. Niki, Free Rad. Biol. Med. 1998, 24, 259-268) and ABAP, (L. R. C. Barclay, S. J. Locke, J. M. MacNeil, J. VanKessel, G. W. Burton, K. U. Ingold, J. Am. Chem. Soc. 1984, 106, 2479-2481) respectively. Representative results are shown for MeOAMVN-mediated oxidations in FIG. 1. […] Since the reactivity of H2B-PMHC is essentially the same as that of α-TOH, the efficacy of 1 and 2 must therefore be less than 1/100 that of α-TOH in a lipid bilayer.
The time required to reach maximum fluorescence in the first phase of the plots in FIG. 1 (ca. 400 counts), which we will hereafter refer to as the ‘inhibited period’, reflects the stoichiometry of the reaction of the antioxidant and the peroxyl radicals. […] Chem. Int. Ed. 2009, 48, 157-160; and R. Amorati, P. T. Lynett, L. Valgimigli, D. A. Pratt, Chem. Eur. J. 2012, 18, 6370-6379)

[4] = Peroxyl radical clock (methyl linoleate oxidation, Z,E:E,E product ratio by HPLC); settings: for kinh/kinh (C6BPT): chlorobenzene at 37° C., peroxyl radical clock
Protocol: The kinetics of reaction of p-n-C6H13-BPT with peroxyls was studied using a method based on the peroxyl radical clocks described in Roschek, B.; Tallman, K. A.; Rector, C. L.; Gillmore, J. G.; Pratt, D. A.; Punta, C.; Porter, N. A. J. Org. Chem. 2006, 71, 3527-3532.
Stock solutions of methyl linoleate (“MeLin”) (1.0 M), methoxy 2,2′-Azobis(4-methoxy-2,4-dimethyl valeronitrile) (“MeOAMVN”) (0.1 M), and the thiosulfinates, BPT and p-n-C6H13-BPT 5, were prepared in chlorobenzene. Samples were assembled in 1 mL HPLC autosampler vials with a total reaction volume of 100 μL. Solutions were prepared in the following order to avoid premature oxidation:thiosulfinate (1 mM-7 mM), MeLin (0.10 M) and then MeOAMVN (0.01 M), and diluted to 100 μL with chlorobenzene. The sealed samples were then heated to 37° C. for 2 h. After 2 h, the oxidation was stopped by the addition of butylated hydroxytoluene (“BHT”) (50 μL of 1.0 M solution in hexanes), followed by reduction of the hydroperoxides to alcohols by triphenylphosphine (50 μL of 1 M solution in chlorobenzene). The samples were then diluted to 1 mL with HPLC grade hexanes and analyzed by HPLC (0.5% i-PrOH in hexanes, 1 mL min-1, 40 min, Sun-Fire Silica, 5 mm 4.6×250 mm column, UV detection at 234 nm). The ratio of products (Z,E:E,E) was plotted versus thiosulfinate concentration to derive kH, (Roschek, B.; Tallman, K. A.; Rector, C. L.; Gillmore, J. G.; Pratt, D. A.; Punta, C.; Porter, N. A. J. Org. Chem. 2006, 71, 3527-3532).
The peroxyl radical clock method was used to measure the rate constants for the reaction of a furan-containing thiosulfinate compound (S-(furan-2-ylmethyl) furan-2-ylmethanesulfinothioate) with peroxyl radicals (kinh). The method relies on the competition between the β-fragmentation of a peroxyl radical and its trapping by a H-atom donor. When methyl linoleate is used as a precursor, the reduction of the two initially formed (Z,E)-dienylperoxyl radicals by the antioxidant (A-H in the scheme below) competes with their isomerization to the more thermodynamically stable (E,E)-dienylperoxyl radicals. […]

[5] = going from chlorobenzene to acetonitrile; cited from earlier work
[6] = known from literature under these conditions; cited from earlier work
[7] = radicals generated using MeOAMVN

For [O-][S+](Cc1ccccc1)SCc1ccccc1 (stereo not shown) [BPT, S-Benzyl phenylmethane thiosulfinate], the kH [1] is listed as 200000 M⁻¹ s⁻¹, the half-life ([2]; liposome solutions) is listed as about 90 min and the “effect on oxidation of liposome-embedded H2B-PMHC with one equivalent of NAC” value (“effect on oxidation” for short) [3] is listed as “little effect”. The “inhibition of oxidation of liposome-embedded H2B-PMHC” value (from here on “inhibition”) [3] was “neither 1 nor 2 were able to slow the oxidation”, the “efficacy relative to α-TOH in a lipid bilayer” value [3] was “less than 1/100” and the “radical trapping at the lipid/water interface” value [3] was “cannot”.
In the case of CC(=O)N[C@@H](CS)C(=O)O [NAC, N-acetylcysteine], the “effect of NAC alone on oxidation” value ([3]; ABAP-mediated, 4.5, 7.5 and 15 μM) is reported as “only a modest retarding effect” and the “effect of NAC alone on oxidation” value ([3]; MeOAMVN-mediated, 4.5, 7.5 and 15 μM) is reported as “does little”.
With [O-][S+](Cc1ccco1)SCc1ccco1 (stereo not drawn) [S-(furan-2-ylmethyl) furan-2-ylmethanesulfinothioate] the “kinh/kinh (C6BPT)” value [4] was 1.1.
For C=CCS[S+]([O-])CC=C (stereo not shown) [compound 1, allicin], the “extension of half-life for decomposition in liposome solutions compared to non-H-bonding organic solvents” value ([2]; HPLC) was 50%, the “effect on oxidation” value [3] was “little effect” and the “inhibition” value [3] was “neither 1 nor 2 were able to slow the oxidation”. The “efficacy relative to α-TOH in a lipid bilayer” value [3] was “less than 1/100” and the “radical trapping at the lipid/water interface” value [3] was “cannot”.
With OSC12c3ccccc3C(c3ccccc31)c1ccccc12 [compound 5, 9-triptycenesulfenic acid] the “effect of increasing equivalents of NAC on inhibited period” value [3] was “the inhibited period was extended with increasing concentration of NAC”, the “inhibition” value [3] was “excellent concentration-dependent radical-trapping activity” and the “rate of H2B-PMHC oxidation (fluorescence increase)” value ([3]; MeOAMVN-mediated, in presence of compound) was “essentially nil”. The “number of peroxyl radicals trapped (stoichiometry)” value ([3]; implied from slope relative to 8) was “one”, the “slope of inhibited period versus concentration” value ([3]; radicals generated using AAPH) was 10 min/µM and the “slope of inhibited period versus concentration” value [3, 7] was 14 min/µM. For the same compound, the “radical trapping at the lipid/water interface” value [3] was “can trap radicals at the lipid/water interface”.
For Cc1c(C)c2c(c(C)c1O)CC[C@@](C)(CCC[C@H](C)CCC[C@H](C)CCCC(C)C)O2 [compound 7, α-tocopherol], the “slowing of rate of reaction with peroxyl radicals by H-bond accepting solvent” value [5] is given as 20 fold.
With Cc1c(C)c2c(c(C)c1O)CCC(C)(C)O2 [compound 8, PMHC] the “slope of inhibited period versus concentration” value ([3]; radicals generated using AAPH) was 21 min/µM, the “slope of inhibited period versus concentration” value [3, 7] was 31 min/µM and the “radical trapping at the lipid/water interface” value [3] was “can trap radicals at the lipid/water interface”. The “number of peroxyl radicals trapped (stoichiometry)” value [6] was “two”.
For CCCCCCc1ccc(CS[S+]([O-])Cc2ccc(CCCCCC)cc2)cc1 (stereo not shown) [compound 9], the “effect of increasing equivalents of NAC on inhibited period” value [3] was “proportionately increased the inhibited period”, the “effect on oxidation” value [3] was “pronounced inhibited period” and the “inhibition” value [3] was “essentially indistinguishable from those supplemented with allicin and petivericin”.
For CCCCCCc1ccc(CS[S+]([O-])Cc2ccc(CCCCCC)cc2)cc1 (stereo not shown) [p-n-C6H13-BPT 5, p-n-C6H13-Benzyl phenylmethane thiosulfinate], the “kinh/kinh (C6BPT)” value [4] was 1.0^a and the “rate constant relative to that of BPT” value ([4]; chlorobenzene, 37° C., MeLin 0.10 M, MeOAMVN 0.01 M) was “about 1.6 fold”.
